Measurements published in patent US11572398B2, “GLP-1 derivatives and uses thereof” (Novo Nordisk A/S, priority 2014, dated 2023).
Like-named read-outs stand apart in the source and are kept apart here.

How the values were obtained:
in vivo = conditions: male, Göttingen, minipig, iv
Procedure: The purpose of this study is to determine the protraction in vivo of the GLP-1 derivatives after i.v. administration to minipigs, i.e. the prolongation of their time in the body and thereby their time of action. This is done in a pharmacokinetic (PK) study, where the terminal half-life of the derivative in question is determined. By terminal half-life is meant the time it takes to halve a certain plasma concentration in the terminal elimination phase.
Male Göttingen minipigs were obtained from Ellegaard Göttingen Minipigs (Dalmose, Denmark) approximately 7-14 months of age and weighing approximately 16-35 kg were used in the studies. The minipigs were housed either individually (pigs with permanent catheters) or in a group and fed restrictedly once or twice daily with SDS minipig diet (Special Diets Services, Essex, UK).
After at least 2 weeks of acclimatisation two permanent central venous catheters were implanted in vena cava caudalis or cranialis in each animal. The animals were allowed 1 week recovery after the surgery, and were then used for repeated pharmacokinetic studies with a suitable wash-out period between successive GLP-1 derivative dosings.
Blood samples (for example 0.8 ml) were collected in EDTA buffer (8 mM) and then centrifuged at 4° C. and 1942G for 10 minutes.
Plasma was pipetted into Micronic tubes on dry ice, and kept at −20° C. until analysed for plasma concentration of the respective GLP-1 compound using LOCI. Individual plasma concentration-time profiles were analyzed by a non-compartmental pharmacokinetic method in Phoenix v. 6.2 (Pharsight Inc., Mountain View, Calif., USA), or other relevant software for PK analysis, and the resulting terminal half-lives (harmonic mean) determined.

human GLP-1 receptor = biological target: T1, human GLP-1 receptor (Homo sapiens, UniProt P43220); assay: GLP-1 receptor binding: competitive binding assay (125I-GLP-1, SPA) on isolated membranes at low and high HSA
T1 construct: expressed in transfected cells; host or cells: BHK cells (parent line BHKTS13), clone FCW467-12A; membrane preparation

[1] = high HSA (2.0% final assay concentration), read-out: High HSA IC50
[2] = low HSA (max. 0.001% final assay concentration), read-out: Low HSA IC50

T1 sequence (P43220 24-463): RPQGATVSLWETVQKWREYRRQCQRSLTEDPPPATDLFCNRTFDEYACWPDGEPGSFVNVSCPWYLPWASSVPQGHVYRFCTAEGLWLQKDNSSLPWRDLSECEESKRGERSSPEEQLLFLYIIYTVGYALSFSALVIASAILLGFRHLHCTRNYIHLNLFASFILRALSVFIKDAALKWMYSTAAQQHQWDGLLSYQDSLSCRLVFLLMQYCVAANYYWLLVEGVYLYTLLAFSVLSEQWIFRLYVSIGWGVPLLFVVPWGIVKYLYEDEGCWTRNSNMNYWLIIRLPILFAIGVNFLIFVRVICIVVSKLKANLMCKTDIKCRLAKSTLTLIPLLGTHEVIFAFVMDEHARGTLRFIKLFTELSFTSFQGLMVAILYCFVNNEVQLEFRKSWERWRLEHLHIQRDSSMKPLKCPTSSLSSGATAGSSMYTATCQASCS

half-life (in vivo)	IC50 (human GLP-1 receptor; [1])	IC50 (human GLP-1 receptor; [2])	SMILES
130 h			CC[C@H](C)[C@H](NC(=O)[C@H](Cc1ccccc1)NC(=O)[C@H](CCC(=O)O)NC(=O)[C@H](CCCNC(=N)N)NC(=O)[C@H](C)NC(=O)[C@H](C)NC(=O)[C@H](CCC(N)=O)NC(=O)[C@H](CCC(=O)O)NC(=O)[C@H](CCC(=O)O)NC(=O)[C@H](CC(C)C)NC(=O)[C@H](Cc1ccc(O)cc1)NC(=O)[C@H](CO)NC(=O)[C@H](CO)NC(=O)[C@@H](NC(=O)[C@H](CC(=O)O)NC(=O)[C@H](CO)NC(=O)[C@@H](NC(=O)[C@H](Cc1ccccc1)NC(=O)[C@@H](NC(=O)CNC(=O)[C@H](CCC(=O)O)NC(=O)C(C)(C)NC(=O)[C@@H](N)Cc1c[nH]cn1)[C@@H](C)O)[C@@H](C)O)C(C)C)C(=O)N[C@@H](C)C(=O)N[C@@H](Cc1c[nH]c2ccccc12)C(=O)N[C@@H](CC(C)C)C(=O)N[C@H](C(=O)N[C@@H](CCCNC(=N)N)C(=O)NCC(=O)N[C@@H](CCCNC(=N)N)C(=O)N[C@@H](CCCCNC(=O)CN(CCCNC(=O)COCCOCCNC(=O)COCCOCCNC(=O)COCCOCCNC(=O)COCCOCCNC(=O)COCCOCCNC(=O)[C@@H](N)CCCCNC(=O)[C@@H](N)CCCCNC(=O)CCCCCCCCCCCCCCCCCCC(=O)O)CCCNC(=O)COCCOCCNC(=O)COCCOCCNC(=O)COCCOCCNC(=O)COCCOCCNC(=O)COCCOCCNC(=O)[C@@H](N)CCCCNC(=O)[C@@H](N)CCCCNC(=O)CCCCCCCCCCCCCCCCCCC(=O)O)C(=O)O)C(C)C [Example 1, N{Epsilon-37}-[2-[bis[3-[[2-[2-[2-[[2-[2-[2-[[2-[2-[2-[[2-[2-[2-[[2-[2-[2-[[(2S)-2-amino-6-[[(2S)-2-amino-6-(19-carboxynonadecanoylamino)hexanoyl]amino]hexanoyl]amino]ethoxy]ethoxy]acetyl]amino]ethoxy]ethoxy]acetyl]amino]ethoxy]ethoxy]acetyl]amino]ethoxy]ethoxy]acetyl]amino]ethoxy]ethoxy]acetyl]amino]propyl]amino]acetyl]-[Ab8,Glu22,Arg26,Arg34,Lys37]-GLP-1-(7-37)-peptide]
113 h	11 nM	0.19 nM	CC[C@H](C)[C@H](NC(=O)[C@H](Cc1ccccc1)NC(=O)[C@H](CCC(=O)O)NC(=O)[C@H](CCCNC(=N)N)NC(=O)[C@H](C)NC(=O)[C@H](C)NC(=O)[C@H](CCC(N)=O)NC(=O)[C@H](CCC(=O)O)NC(=O)[C@H](CCC(=O)O)NC(=O)[C@H](CC(C)C)NC(=O)[C@H](Cc1ccc(O)cc1)NC(=O)[C@H](CO)NC(=O)[C@H](CO)NC(=O)[C@@H](NC(=O)[C@H](CC(=O)O)NC(=O)[C@H](CO)NC(=O)[C@@H](NC(=O)[C@H](Cc1ccccc1)NC(=O)[C@@H](NC(=O)CNC(=O)[C@H](CCC(=O)O)NC(=O)C(C)(C)NC(=O)[C@@H](N)Cc1c[nH]cn1)[C@@H](C)O)[C@@H](C)O)C(C)C)C(=O)N[C@@H](C)C(=O)N[C@@H](Cc1c[nH]c2ccccc12)C(=O)N[C@@H](CC(C)C)C(=O)N[C@H](C(=O)N[C@@H](CCCNC(=N)N)C(=O)NCC(=O)N[C@@H](CCCNC(=N)N)C(=O)N[C@@H](CCCCNC(=O)CN(CCCNC(=O)COCCOCCNC(=O)COCCOCCNC(=O)COCCOCCNC(=O)COCCOCCNC(=O)[C@@H](N)CCCCNC(=O)[C@@H](N)CCCCNC(=O)CCCCCCCCCCCCCCCCCCC(=O)O)CCCNC(=O)COCCOCCNC(=O)COCCOCCNC(=O)COCCOCCNC(=O)COCCOCCNC(=O)[C@@H](N)CCCCNC(=O)[C@@H](N)CCCCNC(=O)CCCCCCCCCCCCCCCCCCC(=O)O)C(=O)O)C(C)C [Example 2, N{Epsilon-37}-[2-[bis[3-[[2-[2-[2-[[2-[2-[2-[[2-[2-[2-[[2-[2-[2-[[(2S)-2-amino-6-[[(2S)-2-amino-6-(19-carboxynonadecanoylamino)hexanoyl]amino]hexanoyl]amino]ethoxy]ethoxy]acetyl]amino]ethoxy]ethoxy]acetyl]amino]ethoxy]ethoxy]acetyl]amino]ethoxy]ethoxy]acetyl]amino]propyl]amino]acetyl]-[Aib8,Glu22,Arg26,Arg34,Lys37]-GLP-1-(7-37)-peptide]
243 h		0.13 nM	CC[C@H](C)[C@H](NC(=O)[C@H](Cc1ccccc1)NC(=O)[C@H](CCC(=O)O)NC(=O)[C@H](CCCNC(=N)N)NC(=O)[C@H](C)NC(=O)[C@H](C)NC(=O)[C@H](CCC(N)=O)NC(=O)[C@H](CCC(=O)O)NC(=O)[C@H](CCC(=O)O)NC(=O)[C@H](CC(C)C)NC(=O)[C@H](Cc1ccc(O)cc1)NC(=O)[C@H](CO)NC(=O)[C@H](CO)NC(=O)[C@@H](NC(=O)[C@H](CC(=O)O)NC(=O)[C@H](CO)NC(=O)[C@@H](NC(=O)[C@H](Cc1ccccc1)NC(=O)[C@@H](NC(=O)CNC(=O)[C@H](CCC(=O)O)NC(=O)C(C)(C)NC(=O)CCc1cnc[nH]1)[C@@H](C)O)[C@@H](C)O)C(C)C)C(=O)N[C@@H](C)C(=O)N[C@@H](Cc1c[nH]c2ccccc12)C(=O)N[C@@H](CC(C)C)C(=O)N[C@H](C(=O)N[C@@H](CCCNC(=N)N)C(=O)NCC(=O)N[C@@H](CCCNC(=N)N)C(=O)N[C@@H](CCCCNC(=O)CN(CCCNC(=O)COCCOCCNC(=O)COCCOCCNC(=O)COCCOCCNC(=O)COCCOCCNC(=O)[C@@H](N)CCCCNC(=O)[C@@H](N)CCCCNC(=O)CCCCCCCCCCCCCCCCCCC(=O)O)CCCNC(=O)COCCOCCNC(=O)COCCOCCNC(=O)COCCOCCNC(=O)COCCOCCNC(=O)[C@@H](N)CCCCNC(=O)[C@@H](N)CCCCNC(=O)CCCCCCCCCCCCCCCCCCC(=O)O)C(=O)O)C(C)C [Example 4]
122 h			CC[C@H](C)[C@H](NC(=O)[C@H](Cc1ccccc1)NC(=O)[C@H](CCC(=O)O)NC(=O)[C@H](CCCNC(=N)N)NC(=O)[C@H](C)NC(=O)[C@H](C)NC(=O)[C@H](CCC(N)=O)NC(=O)[C@H](CCC(=O)O)NC(=O)[C@H](CCC(=O)O)NC(=O)[C@H](CC(C)C)NC(=O)[C@H](Cc1ccc(O)cc1)NC(=O)[C@H](CO)NC(=O)[C@H](CO)NC(=O)[C@@H](NC(=O)[C@H](CC(=O)O)NC(=O)[C@H](CO)NC(=O)[C@@H](NC(=O)[C@H](Cc1ccccc1)NC(=O)[C@@H](NC(=O)CNC(=O)[C@H](CCC(=O)O)NC(=O)C(C)(C)NC(=O)[C@@H](N)Cc1c[nH]cn1)[C@@H](C)O)[C@@H](C)O)C(C)C)C(=O)N[C@@H](C)C(=O)N[C@@H](Cc1c[nH]c2ccccc12)C(=O)N[C@@H](CC(C)C)C(=O)N[C@H](C(=O)N[C@@H](CCCNC(=N)N)C(=O)NCC(=O)N[C@@H](CCCNC(=N)N)C(=O)N[C@@H](CCCCNC(=O)CN(CCCNC(=O)CCOCCOCCOCCOCCNC(=O)CCOCCOCCOCCOCCNC(=O)CCOCCOCCOCCOCCNC(=O)[C@@H](N)CCCCNC(=O)[C@@H](N)CCCCNC(=O)CCCCCCCCCCCCCCCCCCC(=O)O)CCCNC(=O)CCOCCOCCOCCOCCNC(=O)CCOCCOCCOCCOCCNC(=O)CCOCCOCCOCCOCCNC(=O)[C@@H](N)CCCCNC(=O)[C@@H](N)CCCCNC(=O)CCCCCCCCCCCCCCCCCCC(=O)O)C(=O)O)C(C)C [Example 5, N{Epsilon-37}-[2-[bis[3-[3-[2-[2-[2-[2-[3-[2-[2-[2-[2-[3-[2-[2-[2-[2-[[(2S)-2-amino-6-[[(2S)-2-amino-6-(19-carboxynonadecanoylamino)hexanoyl]amino]hexanoyl]amino]ethoxy]ethoxy]ethoxy]ethoxy]propanoylamino]ethoxy]ethoxy]ethoxy]ethoxy]propanoylamino]ethoxy]ethoxy]ethoxy]ethoxy]propanoylamino]propyl]amino]acetyl]-[Aib8,Glu22,Arg26,Arg34,Lys37]-GLP-1-(7-37)-peptide]
131 h	29 nM	0.36 nM	CC[C@H](C)[C@H](NC(=O)[C@H](Cc1ccccc1)NC(=O)[C@H](CCC(=O)O)NC(=O)[C@H](CCCNC(=N)N)NC(=O)[C@H](C)NC(=O)[C@H](C)NC(=O)[C@H](CCC(N)=O)NC(=O)[C@H](CCC(=O)O)NC(=O)[C@H](CCC(=O)O)NC(=O)[C@H](CC(C)C)NC(=O)[C@H](Cc1ccc(O)cc1)NC(=O)[C@H](CO)NC(=O)[C@H](CO)NC(=O)[C@@H](NC(=O)[C@H](CC(=O)O)NC(=O)[C@H](CO)NC(=O)[C@@H](NC(=O)[C@H](Cc1ccccc1)NC(=O)[C@@H](NC(=O)CNC(=O)[C@H](CCC(=O)O)NC(=O)C(C)(C)NC(=O)[C@@H](N)Cc1c[nH]cn1)[C@@H](C)O)[C@@H](C)O)C(C)C)C(=O)N[C@@H](C)C(=O)N[C@@H](Cc1c[nH]c2ccccc12)C(=O)N[C@@H](CC(C)C)C(=O)N[C@H](C(=O)N[C@@H](CCCNC(=N)N)C(=O)NCC(=O)N[C@@H](CCCNC(=N)N)C(=O)N[C@@H](CCCCNC(=O)COCCOCCNC(=O)COCCOCCNC(=O)COCCOCCNC(=O)COCCOCCNC(=O)COCCOCCNC(=O)COCCOCCNC(=O)CN(CCCNC(=O)CC[C@H](NC(=O)CCCCCCCCCCCCCCCCCCC(=O)O)C(=O)O)CCCNC(=O)CC[C@H](NC(=O)CCCCCCCCCCCCCCCCCCC(=O)O)C(=O)O)C(=O)O)C(C)C [Example 26, N{Epsilon-37}-[2-[2-[2-[[2-[2-[2-[[2-[2-[2-[[2-[2-[2-[[2-[2-[2-[[2-[2-[2-[[2-[bis[3-[[(4S)-4-carboxy-4-(19-carboxynonadecanoylamino)butanoyl]amino]propyl]amino]acetyl]amino]ethoxy]ethoxy]acetyl]amino]ethoxy]ethoxy]acetyl]amino]ethoxy]ethoxy]acetyl]amino]ethoxy]ethoxy]acetyl]amino]ethoxy]ethoxy]acetyl]amino]ethoxy]ethoxy]acetyl]-[Aib8,Glu22,Arg26,Arg34,Lys37]-GLP-1-(7-37)-peptide]
